In patent US7763621B2, “Vitronectin receptor antagonist derivatives, method for preparing same, use thereof as medicines and pharmaceutical compositions containing same” (Galapagos SAS, priority 2002, dated 2010):

test system: TPXT rats; assay: Hypercalcemia induced by the parathyroid hormone (PTH) in a thyroparathyroidectomized (TPXT) rat model; format: in vivo; settings: doses ranging from twice 1 mg/kg to twice 10 mg/kg by subcutaneous route in the rat, at time 0 and 3 hours; serum Ca at 6 hours
Method: Hypercalcemia induced by the parathyroid hormone (PTH) in a thyroparathyroidectomized (TPXT) rat model
Stimulation of bone resorption is induced in TPXT rats by perfusion of PTH and the variations of bone resorption are monitored by the concentration of calcium in the serum.
Male Sprague Dawley rats weighing 150-200 g are thyroparathyroidectomized. The rats are subjected to a standard diet containing 7 g Ca/kg (UAR) and Volvic water. The effectiveness of the thyroparathyroidectomy is tested by measuring the concentrations of Ca in the serum 8 days after the operation in animals which have been starved since the previous day. The rats are considered as thyroparathyroidectomized when the Ca levels in the serum are less than 80 mg/l. The PTH (1-34) of the rat (Bachem) is dissolved in 0.15M of NaCl Cys.HCl 2% and delivered by osmotic minipumps (ALZET 2001D) at a dose of 200 pmol/kg/h. The minipumps are introduced into the intraperitoneal cavities under anaesthesia (ketamine—75 mg/kg and acepromazine—2.5 mg/kg) of the TPXT rats which have been starved since the previous day. The control TPXT rats receive the minipumps filled with the PTH vehicle.
Either the product to be tested or the vehicle (controls and rats treated with the PTH) are administered twice by sub-cutaneous route (2 ml/kg of body weight) at time 0 and 3 hours after the start of the infusion of PTH. The test is continued for the next 6 hours. At the end of the treatment, all the blood is collected after decapitation. The blood samples are centrifuged at 3000 rpm for 15 minutes (CR422 Jouan) in order to obtain the serum.
The total concentrations of Ca in the serum are measured by colorimetry (Ciba-Corning) using an IEMS Labsystems microplate reading system, at 540 nm.
The difference between the average calcemia values of the treated rats and the control groups is analyzed by variance and by the Dunnett test.
The activity of a product is calculated by the following formula: […]

| Structure (SMILES) | activity against PTH-induced hypercalcemia (total Ca in the serum) |
| --- | --- |
| Cc1c(NC[C@H](NC(=O)OCc2ccccc2)C(=O)O)ncnc1N1CCC(c2ccc3c(n2)NCCC3)CC1 [Example 6, 3-[[5-methyl-6-[4-(1,2,3,4-tetrahydro-1,8-naphthyridin-7-yl)-1-piperidinyl]-4-pyrimidinyl]amino]-N-[(phenylmethoxy)carbonyl]alanine, bis(trifluoroacetate)] | active |
| CCc1c(NC[C@H](NC(=O)OCc2ccccc2)C(=O)O)ncnc1N1CCC(c2ccc3c(n2)NCCC3)CC1 [Example 9, 3-[[5-ethyl-6-[4-(1,2,3,4-tetrahydro-1,8-naphthyridin-7-yl)-1-piperidinyl]-4-pyrimidinyl]amino]-N-[(phenylmethoxy)carbonyl]alanine, bis(trifluoroacetate)] | active |
| CCc1c(NC[C@H](NC(=O)OCc2ccccc2)C(=O)OC(C)C)ncnc1N1CCC(c2ccc3c(n2)NCCC3)CC1 [Example 13, isopropyl 3-[[6-[4-(1,2,3,4-tetrahydro-1,8-naphthyridin-7-yl)-1-piperidinyl]-5-ethyl-4-pyrimidinyl]amino]-N-[(phenylmethoxy)carbonyl]alaninate] | active |

target: human αVβ3 receptor (Homo sapiens, UniProt P05106+P06756); assay: Kistrin/Vitronectin receptor (αVβ3) ELISA test; format: binding; settings: co-incubated 3 hours at ambient temperature, read-out: K/VnR IC50
Method: Pharmacological Test: Kistrin/Vitronectin Receptor (αVβ3) ELISA Test
96-well MaxiSorp plates are coated overnight at […] with 100 μl of Kistrin at 1 μg/ml (dilution in coating buffer: 0.05M (carbonate)/NaOH pH 9.6. The next day, the wells are emptied and the ligands (kistrin) are then fixed (fixation buffers: PBS containing 0.5% BSA (pH=7.4)) for 1 hour at ambient temperature under gentle stirring of 125 rpm. The wells are washed six times (washing buffer: PBS containing 0.05% Tween 20 (pH 7.7) then the following is added per well and in this order:
40 μl of incubation buffer
10 μl of the dilution of the product to be tested (the products are diluted in a 50:50 DMSO/water mixture)
50 μl of human αVβ3 receptor (cf Pytella et al. Methods Enzymol. (1987) 144 (Dilution in incubation buffer, adapted according to the batch of receptor and according to the ligand). The ligand, the αVβ3 receptor and the products to be studied are co-incubated for 3 hours at ambient temperature with gentle stirring of 125 rpm.
The wells are again washed six times, then incubated for 2 hours at ambient temperature with gentle stirring of 125 rpm, in the presence of 100 μl of anti-receptor antibody coupled to a peroxidase (The 4B12-HRP antibody is diluted in incubation buffer (50 mM TRIS pH 7.4; 0.5% BSA; 0.05% Tween 20; 1 mM MnCl2; 50 μM CaCl2; 50 μM MgCl2; 100 mM NaCl). The dilution is to be adapted according to the batch of receptor.
The wells are then washed six times before measurement of the ligand-receptor bond is carried out using a peroxidase developer kit (TBM Microwell Peroxidase Substrate System Kirkegaard; Ref cat 50-76-00).
This kit contains a flask A of substrate (3,3′,5,5′-tetramethylebenzidine at 0.4 g/l) and a flask B (0.02% H2O2 in Citrate/Citric acid). Extemporaneously, one volume of A is mixed with one volume of B, then the reaction mixture is distributed at a rate of 100 μl/well.
The enzymatic reaction develops between 6 to 10 minutes for Kistrin/αVβ3 then its development is stopped by the addition of 100 μl of 1M phosphoric acid. The optical density is determined at 450 nm.
Expression of the Results
The following curve is plotted: the bond percentage as a function of the logarithm of each concentration of the tested product. For each product the IC50 is determined according to the following formula: IC50=(B0+Bmin)/2
B0=Maximum bond in the absence of any product
Bmin=Minimum bond in the presence of the highest concentration of the product.

Sequence of human αVβ3 receptor (P06756 31-889 limits assumed): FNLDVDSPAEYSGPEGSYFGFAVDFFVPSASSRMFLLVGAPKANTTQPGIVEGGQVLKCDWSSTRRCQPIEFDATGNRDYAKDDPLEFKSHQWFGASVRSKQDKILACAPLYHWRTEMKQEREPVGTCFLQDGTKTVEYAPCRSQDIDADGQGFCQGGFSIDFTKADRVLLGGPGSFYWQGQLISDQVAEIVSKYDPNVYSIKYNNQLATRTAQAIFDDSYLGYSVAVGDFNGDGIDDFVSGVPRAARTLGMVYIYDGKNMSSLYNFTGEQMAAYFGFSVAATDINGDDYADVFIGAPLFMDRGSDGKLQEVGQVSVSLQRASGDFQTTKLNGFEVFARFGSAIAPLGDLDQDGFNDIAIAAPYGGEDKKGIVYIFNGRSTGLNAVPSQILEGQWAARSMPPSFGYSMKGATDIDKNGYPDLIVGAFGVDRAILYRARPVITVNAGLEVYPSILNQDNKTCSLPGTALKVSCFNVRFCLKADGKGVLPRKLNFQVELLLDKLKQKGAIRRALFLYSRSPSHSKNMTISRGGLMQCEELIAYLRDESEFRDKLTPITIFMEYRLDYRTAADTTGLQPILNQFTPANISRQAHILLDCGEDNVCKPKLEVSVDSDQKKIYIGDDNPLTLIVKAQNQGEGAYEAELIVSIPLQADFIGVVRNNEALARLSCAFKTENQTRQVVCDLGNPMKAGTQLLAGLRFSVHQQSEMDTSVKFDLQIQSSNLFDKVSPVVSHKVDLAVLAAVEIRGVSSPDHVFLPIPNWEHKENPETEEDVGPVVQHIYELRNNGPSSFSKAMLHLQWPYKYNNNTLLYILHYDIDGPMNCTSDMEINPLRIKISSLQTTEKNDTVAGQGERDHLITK
Sequence of human αVβ3 receptor (P06756 891-1048 partner limits assumed): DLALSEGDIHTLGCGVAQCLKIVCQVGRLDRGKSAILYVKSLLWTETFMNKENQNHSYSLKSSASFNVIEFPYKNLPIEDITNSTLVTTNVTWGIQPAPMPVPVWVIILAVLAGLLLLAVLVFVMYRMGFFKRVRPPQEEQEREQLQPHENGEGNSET
Sequence of human αVβ3 receptor (P05106 27-788): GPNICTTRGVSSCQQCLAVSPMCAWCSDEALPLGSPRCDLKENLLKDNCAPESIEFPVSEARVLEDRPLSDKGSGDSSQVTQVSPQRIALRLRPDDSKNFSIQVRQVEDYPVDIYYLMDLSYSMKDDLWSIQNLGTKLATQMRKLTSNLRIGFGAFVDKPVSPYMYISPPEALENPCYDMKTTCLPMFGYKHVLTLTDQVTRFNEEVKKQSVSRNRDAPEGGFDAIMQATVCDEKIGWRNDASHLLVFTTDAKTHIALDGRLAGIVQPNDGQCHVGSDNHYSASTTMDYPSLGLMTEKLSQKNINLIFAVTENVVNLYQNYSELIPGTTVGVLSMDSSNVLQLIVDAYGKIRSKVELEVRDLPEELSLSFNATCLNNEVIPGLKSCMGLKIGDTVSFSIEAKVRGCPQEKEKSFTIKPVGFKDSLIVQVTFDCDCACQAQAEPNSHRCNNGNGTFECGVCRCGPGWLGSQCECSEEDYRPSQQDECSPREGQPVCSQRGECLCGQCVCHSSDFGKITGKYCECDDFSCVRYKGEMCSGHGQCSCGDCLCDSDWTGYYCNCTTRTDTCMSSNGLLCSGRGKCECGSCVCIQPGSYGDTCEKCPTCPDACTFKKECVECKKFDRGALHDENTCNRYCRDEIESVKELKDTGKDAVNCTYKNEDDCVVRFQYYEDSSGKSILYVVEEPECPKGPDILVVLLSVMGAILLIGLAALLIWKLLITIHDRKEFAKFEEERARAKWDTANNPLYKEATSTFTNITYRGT

| Structure (SMILES) | IC50 [nM] |
| --- | --- |
| CCc1c(NCC(NC(=O)OCc2ccccc2)C(=O)O)ncnc1N1CCC(c2ccc3c(n2)NCCC3)CC1 (racemic) [Example 1, 3-[[5-ethyl-6-[4-(1,2,3,4-tetrahydro-1,8-naphthyridin-7-yl)-1-piperidinyl]-4-pyrimidinyl]amino]-N-[(phenylmethoxy)carbonyl]alanine, bis(trifluoroacetate)] | 3 |
| CCc1c(NCC(NC(=O)OCc2ccccc2)C(=O)O)ncnc1N1CCC(C(=O)N=C2NCCCN2)CC1 (racemic) [Example 2, 3-[[5-ethyl-6-[4-[(1,2,3,4,5,6-hexahydro-2-pyrimidinyl)iminocarbonyl]-1-piperidinyl]-4-pyrimidinyl]amino]-N-[(phenylmethoxy)carbonyl]alanine] | 160 |
| Cc1c(NCC(NC(=O)OCc2ccccc2)C(=O)O)ncnc1N1CCC(c2ccc3c(n2)NCCC3)CC1 (racemic) [Example 3, 3-[[6-[4-(1,2,3,4-tetrahydro-1,8-naphthyridin-7-yl)-1-piperidinyl]-5-methyl-4-pyrimidinyl]amino]-N-[(phenylmethoxy)carbonyl]alanine] | 3.1 |
| Cc1c(NCC(NC(=O)OCc2ccccc2)C(=O)O)ncnc1N1CCC(C(=O)N=C2NCCCN2)CC1 (racemic) [Example 4, 3-[[6-[4-[(1,2,3,4,5,6-hexahydro-2-pyrimidinyl)iminocarbonyl]-1-piperidinyl]-5-methyl-4-pyrimidinyl]amino]-N-[(phenylmethoxy)carbonyl]alanine] | 5.1 |
